Measured values taken from article PMC10485906, “Development of a Dihydroquinoline–Pyrazoline GluN2C/2D-Selective Negative Allosteric Modulator of the N-Methyl-D-aspartate Receptor” (ACS Chemical Neuroscience, 2023).
“And” between values parts separate entries of the source, which are not always exact repeats. Equal values may be shown once. Read-outs that look alike come from different tables or passages of the source. Marks after values point to notes of the source that are not given here.

Experiments:
CYP3A4 = CYP3A4 (Homo sapiens, UniProt P08684); assay: biochemical
[1] = Brain homogenate tissue binding and stability (RED device); assay type: in vitro ADME, mouse; details: for fraction unbound at 4 h, 5 µM / remaining at 4 h, 5 µM: C57BL/6, mouse, brain homogenate (4 times diluted); for remaining at 4 h, 5 µM: pH 7.4, starting concentration 5 μM; for recovery at 4 h, 5 μM: C57BL/6, pH 7.4, mouse brain tissue binding; for Average 2i Concentration, Buffer_Mice: buffer chamber after 4 h dialysis
Protocol: Carbamazepine (Apin Chemicals) served as a positive control for brain tissue binding. Test compounds and the positive control were initially dissolved in DMSO to make 1 mM stock solutions. […] A rapid equilibrium dialysis (RED) device (Thermo Scientific) containing a dialysis membrane with a molecular weight cutoff of 8000 Da was used to assess tissue binding and metabolic stability. […] The test compounds and positive control (200 μL of 5 μM solution) were added to the red chamber of the dialysis insert, while the white chamber was filled with dialysis buffer (350 μL). The RED device was then sealed with an adhesive film and incubated at 37 °C with shaking (300 rpm) for 4 h. For the initial time point (t = 0 min), 50 μL aliquots of test compounds and the positive control were added to 96-deep well plates (0.7 mL per well) and quenched with 400 μL of MeCN. Following dialysis, another 50 μL aliquot of the tested samples was removed from each well (brain homogenate and buffer) and diluted with an equal volume of the opposite matrix to nullify any matrix effects. […] The supernatant (100 μL) was subsequently transferred to 96-deep well plates for LC-MS/MS analysis. Prodrug metabolism and 2i concentrations were determined by fit-for-purpose LC-MS/MS methods on a nine-point calibration curve ranging from 0.12 to 7.5 μM.

GluN1/GluN2A [2] = target: T1, GluN1/GluN2A (Rattus norvegicus, UniProt P35439+Q00959); assay: Two-electrode voltage-clamp recordings, Xenopus laevis oocytes, GluN1/GluN2A; assay type: cell-based; details: 100 μM glutamate, 30 μM glycine; for IC50: read-out: IC50 GluN2A [95% CI]; for remaining activity at 30 µM: 30 μM test compound, mean ± SEM, read-out: I 30 μM / I control GluN2A
T1 construct: expressed in transfected cells; host or cells: Xenopus laevis oocytes (cRNA injection)
Protocol: (§1) All target compounds were evaluated for NMDAR antagonism using two-electrode voltage-clamp recordings from Xenopus laevis oocytes coexpressing recombinant GluN1 and GluN2A-D subunits (Table 1).[32],[42],[33] All analogues were assessed as either a racemic (2b, 2e–2r) or diastereomeric (2d) mixture to simplify purification and streamline in vitro analysis. […] Moreover, as illustrated by the significant loss of NMDAR activity observed with nitrile 2e, the DQP allosteric site necessitated an H-bond donor/acceptor relationship at the carboxylate position. […] The loss of NMDAR activity observed with the trifluoro analogue 2j (Table S1) reinforced the necessity for an H-bond donor/acceptor relationship to maintain allosteric binding and established that fluorine substitution alone is ineffective. […] A single methyl substitution of the amide in compound 2q improved selectivity against GluN2A and had similar potency as 2a, whereas dual methyl substitution reduced potency (2r). We expect that this is likely due to the ability of the […] of the amide to accept hydrogen bonds while the amide can readily donate a proton.
(§2) Unfertilized Xenopus laevis oocytes were obtained from Ecocyte (Austin, TX), or ovaries were purchased from Xenopus 1 (Dexter, MI) and oocytes prepared as previously described.[42],[47] Two-electrode voltage-clamp recordings were performed on oocytes expressing recombinant rat GluN1/GluN2A, GluN1/GluN2B, GluN1/GluN2C, or GluN1/GluN2D. cDNAs for rat GluN1-1a (referred to as GluN1; NCBI Reference Sequence NM_017010.2), GluN2A (NM_012573.4), GluN2B (NM_012574.1), GluN2C (NM_012575.3), and GluN2D (NM_022797.2) were provided by Dr. S. Heinemann from the Salk Institute, Dr. S. Nakanishi from Kyoto University, and Dr. P. Seeburg from the University of Heidelberg. Oocyte isolation, cRNA synthesis, and cRNA injections were performed as previously described.[32],[33],[47] Briefly, Xenopus laevis oocytes were injected with 5–10 ng of cRNA in RNase-free water with the GluN1:GluN2 ratio ranging from 1:1 to 1:5. Oocytes were incubated at 15–19 °C in Barth’s solution consisting of (in mM) 88 NaCl, 1 KCl, 2.4 NaHCO3, 10 HEPES, 0.82 MgSO4, 0.33 Ca(NO3)2, and 0.41 CaCl2 supplemented with 100 μg/mL gentamycin, 40 μg/mL streptomycin, and 50 μg/mL penicillin. Recordings were performed 2–4 days after injection with extracellular recording solution containing (in mM) 90 NaCl, 1 KCl, 10 HEPES, 0.5 BaCl2, and 0.01 EDTA at pH 7.4 adjusted with NaOH. To prevent a gradual increase in current response over the course of the experiment, some oocytes expressing GluN1/GluN2A were injected with 20–50 nL of 2–50 mM K-BAPTA. Concentration–response curves for test compounds were generated by applying a maximally effective concentration of glutamate (100 μM) and glycine (30 μM), followed by glutamate and glycine with variable concentrations of test compounds up to 30 μM. The test compounds were prepared as 20 mM stock solutions in DMSO and diluted to the final concentration in recording solution. The DMSO content was 0.05–0.5% (v/v). […] Methods for off-target analysis are given in the Supporting Information.
(§3) Confidence intervals were determined for the log(IC50). The time course of relaxation during inhibitor application or deactivation following rapid removal of NMDA or glutamate was fitted by the equation [drawing 5] 2

GluN1/GluN2A [3] = target: T2, GluN1/GluN2A (Rattus norvegicus, UniProt Q00959); assay: as above; assay type: cell-based; details: tested at 3 μM, 100 μM glutamate, 30 μM glycine, mean ± SEM
T2 construct: expressed in transfected cells; host or cells: Xenopus laevis oocytes (cRNA injection)
Protocol: as §1, §2, §3

GluN1/GluN2B [4] = target: T3, GluN1/GluN2B (Rattus norvegicus, UniProt P35439+Q00960); assay: Two-electrode voltage-clamp recordings, Xenopus laevis oocytes, GluN1/GluN2B; assay type: cell-based; details: 100 μM glutamate, 30 μM glycine; for IC50: read-out: IC50 GluN2B [95% CI]; for remaining activity at 30 µM: 30 μM test compound, mean ± SEM, read-out: I 30 μM / I control GluN2B
T3 construct: GluN2B (NM_012574.1), GluN2C (NM_012575.3), and GluN2D (NM_022797.2) were provided by; expressed in transfected cells; host or cells: Xenopus laevis oocytes (cRNA injection)
Protocol: as §1, §2, §3

GluN1/GluN2B [5] = target: T4, GluN1/GluN2B (Rattus norvegicus, UniProt Q00960); assay: as above; assay type: cell-based; details: tested at 3 μM, 100 μM glutamate, 30 μM glycine, mean ± SEM
T4 construct: GluN2B (NM_012574.1), GluN2C (NM_012575.3), and GluN2D (NM_022797.2) were provided by; expressed in transfected cells; host or cells: Xenopus laevis oocytes (cRNA injection)
Protocol: as §1, §2, §3

[6] = pH 7.4, mouse brain tissue binding (free fraction in brain), read-out: % Unbound
[7] = pH 7.4, mouse brain tissue binding, RED, 4 h, read-out: % Bound Mean ± SD (converted)
[8] = pH 7.4, mouse brain tissue binding, RED, 4 h, read-out: % Bound R1 (converted)
[9] = pH 7.4, mouse brain tissue binding, RED, 4 h, read-out: % Bound R2 (converted)

T3 sequence (Q00960 27-1482, other chains not shown): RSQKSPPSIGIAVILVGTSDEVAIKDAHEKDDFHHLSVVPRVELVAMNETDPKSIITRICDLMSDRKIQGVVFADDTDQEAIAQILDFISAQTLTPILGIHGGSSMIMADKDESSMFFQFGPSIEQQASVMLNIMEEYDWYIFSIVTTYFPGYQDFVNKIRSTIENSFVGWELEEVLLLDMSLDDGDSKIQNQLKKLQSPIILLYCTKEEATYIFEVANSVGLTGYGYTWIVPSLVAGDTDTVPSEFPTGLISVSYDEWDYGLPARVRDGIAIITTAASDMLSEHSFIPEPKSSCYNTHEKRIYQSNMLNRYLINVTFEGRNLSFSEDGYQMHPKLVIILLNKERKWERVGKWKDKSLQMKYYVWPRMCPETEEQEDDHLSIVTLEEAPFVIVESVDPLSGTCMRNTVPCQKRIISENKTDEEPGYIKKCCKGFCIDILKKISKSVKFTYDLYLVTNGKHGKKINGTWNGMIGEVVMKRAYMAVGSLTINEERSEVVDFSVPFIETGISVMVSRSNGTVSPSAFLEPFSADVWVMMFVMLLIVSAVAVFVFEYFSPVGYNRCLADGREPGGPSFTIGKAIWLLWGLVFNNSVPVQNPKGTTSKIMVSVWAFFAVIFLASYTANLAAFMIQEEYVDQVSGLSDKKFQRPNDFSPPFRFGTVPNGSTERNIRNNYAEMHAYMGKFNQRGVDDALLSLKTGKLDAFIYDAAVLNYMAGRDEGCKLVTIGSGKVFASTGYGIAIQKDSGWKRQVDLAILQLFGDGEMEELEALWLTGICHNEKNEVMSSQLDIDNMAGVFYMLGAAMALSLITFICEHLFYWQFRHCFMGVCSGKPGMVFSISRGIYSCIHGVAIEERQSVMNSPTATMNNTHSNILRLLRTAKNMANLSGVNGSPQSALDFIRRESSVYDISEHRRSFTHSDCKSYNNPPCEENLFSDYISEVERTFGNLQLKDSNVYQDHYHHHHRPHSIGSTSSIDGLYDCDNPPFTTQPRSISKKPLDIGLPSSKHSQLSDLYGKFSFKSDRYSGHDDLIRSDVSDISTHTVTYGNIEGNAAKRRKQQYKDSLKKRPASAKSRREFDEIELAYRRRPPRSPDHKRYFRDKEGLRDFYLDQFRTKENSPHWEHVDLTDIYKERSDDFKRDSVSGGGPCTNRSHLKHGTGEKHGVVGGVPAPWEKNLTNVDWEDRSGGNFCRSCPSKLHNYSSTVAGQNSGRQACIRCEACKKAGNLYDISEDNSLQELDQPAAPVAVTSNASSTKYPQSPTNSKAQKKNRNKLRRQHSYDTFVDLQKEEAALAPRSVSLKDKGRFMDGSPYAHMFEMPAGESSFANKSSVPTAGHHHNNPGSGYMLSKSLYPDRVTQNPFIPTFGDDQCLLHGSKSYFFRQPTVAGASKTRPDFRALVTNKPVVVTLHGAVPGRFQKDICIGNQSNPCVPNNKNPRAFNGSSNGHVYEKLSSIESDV
T4 sequence (Q00960 27-1482, other chains not shown): as above
T2 sequence (Q00959 23-1464, other chains not shown): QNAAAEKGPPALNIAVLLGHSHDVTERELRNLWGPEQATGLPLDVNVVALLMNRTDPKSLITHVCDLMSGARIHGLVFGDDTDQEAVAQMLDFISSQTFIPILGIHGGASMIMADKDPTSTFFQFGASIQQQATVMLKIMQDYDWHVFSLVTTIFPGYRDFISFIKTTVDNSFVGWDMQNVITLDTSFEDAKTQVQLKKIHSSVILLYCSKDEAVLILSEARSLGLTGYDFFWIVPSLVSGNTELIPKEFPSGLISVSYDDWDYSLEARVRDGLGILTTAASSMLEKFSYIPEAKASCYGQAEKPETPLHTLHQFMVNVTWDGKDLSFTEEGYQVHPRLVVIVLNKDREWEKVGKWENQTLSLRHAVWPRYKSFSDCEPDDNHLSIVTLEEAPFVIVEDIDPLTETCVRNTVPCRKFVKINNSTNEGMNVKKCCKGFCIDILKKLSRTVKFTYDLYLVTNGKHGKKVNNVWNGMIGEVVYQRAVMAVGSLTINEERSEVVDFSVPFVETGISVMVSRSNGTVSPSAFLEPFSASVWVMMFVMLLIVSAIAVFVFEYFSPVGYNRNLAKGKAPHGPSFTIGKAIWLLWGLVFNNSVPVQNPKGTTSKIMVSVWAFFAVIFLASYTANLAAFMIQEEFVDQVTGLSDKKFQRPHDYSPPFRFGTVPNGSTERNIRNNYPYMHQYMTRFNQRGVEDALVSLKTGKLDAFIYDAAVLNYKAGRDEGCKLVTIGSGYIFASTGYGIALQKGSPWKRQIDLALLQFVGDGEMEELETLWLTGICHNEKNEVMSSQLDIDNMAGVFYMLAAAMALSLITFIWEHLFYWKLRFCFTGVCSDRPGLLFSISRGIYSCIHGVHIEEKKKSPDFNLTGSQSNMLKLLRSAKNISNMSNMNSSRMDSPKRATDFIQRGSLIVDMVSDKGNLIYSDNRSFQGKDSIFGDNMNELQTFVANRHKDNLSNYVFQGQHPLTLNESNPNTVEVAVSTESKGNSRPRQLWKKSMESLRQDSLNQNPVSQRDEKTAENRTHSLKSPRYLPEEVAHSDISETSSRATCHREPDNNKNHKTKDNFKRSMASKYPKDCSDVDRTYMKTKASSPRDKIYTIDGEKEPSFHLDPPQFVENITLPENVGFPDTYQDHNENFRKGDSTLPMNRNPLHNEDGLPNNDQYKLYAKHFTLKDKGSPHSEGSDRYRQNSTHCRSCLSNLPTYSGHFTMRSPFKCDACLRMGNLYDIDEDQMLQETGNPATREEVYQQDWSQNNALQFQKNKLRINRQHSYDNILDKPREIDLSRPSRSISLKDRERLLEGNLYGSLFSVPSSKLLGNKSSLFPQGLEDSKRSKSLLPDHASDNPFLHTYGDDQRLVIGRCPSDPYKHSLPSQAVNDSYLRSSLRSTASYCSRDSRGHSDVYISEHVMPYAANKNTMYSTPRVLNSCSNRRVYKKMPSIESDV
CYP3A4, sequence (P08684 whole entry): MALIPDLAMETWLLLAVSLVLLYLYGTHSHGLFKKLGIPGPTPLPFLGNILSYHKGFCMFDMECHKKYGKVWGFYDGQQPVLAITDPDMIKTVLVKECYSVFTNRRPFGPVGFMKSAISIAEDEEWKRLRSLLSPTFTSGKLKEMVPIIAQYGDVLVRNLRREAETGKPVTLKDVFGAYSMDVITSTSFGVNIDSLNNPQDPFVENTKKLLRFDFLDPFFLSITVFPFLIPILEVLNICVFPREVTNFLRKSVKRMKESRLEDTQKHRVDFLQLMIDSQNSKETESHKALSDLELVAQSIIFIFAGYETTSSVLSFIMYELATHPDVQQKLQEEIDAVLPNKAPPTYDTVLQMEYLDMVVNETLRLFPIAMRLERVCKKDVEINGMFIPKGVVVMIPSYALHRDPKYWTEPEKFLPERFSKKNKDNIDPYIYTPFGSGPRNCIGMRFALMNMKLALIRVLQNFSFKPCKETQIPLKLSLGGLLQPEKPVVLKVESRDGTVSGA

Compound	IC50 (CYP3A4) [µM]	fraction unbound at 4 h, 5 µM [1, 6]	fraction unbound at 4 h, 5 µM [1, 7]	fraction unbound at 4 h, 5 µM [1, 8]	fraction unbound at 4 h, 5 µM [1, 9]	fraction unbound at 4 h, 5 µM ([1]; pH 7.4, mouse brain tissue binding, read-out: fu)	remaining at 4 h, 5 µM ([1]; 4 h) [%]	recovery at 4 h, 5 μM ([1]; RED, 4 h) [%]	IC50 (GluN1/GluN2A [2]) [µM]	I3 μM/Icontrol GluN2A (GluN1/GluN2A [3])	I3 μM/Icontrol GluN2A (GluN1/GluN2A [3]; listed as racemic 2i)	IC50 (GluN1/GluN2B [4]) [µM]	I3 μM/Icontrol GluN2B (GluN1/GluN2B [5])	I3 μM/Icontrol GluN2B (GluN1/GluN2B [5]; listed as racemic 2i)	metabolized in brain homogenate (% of prodrug) ([1]; after 4 h) [%]	remaining activity at 30 µM (GluN1/GluN2A [2]) [%]	remaining activity at 30 µM (GluN1/GluN2B [4]) [%]	Average 2i Concentration, Buffer_Mice [1]
O=C(O)CCC(=O)N1N=C(c2c(-c3ccc(Cl)cc3)c3ccccc3[nH]c2=O)CC1c1ccc(Cl)cc1 (centres unmarked) [2a]	17 ± 3.4	0.002	0.002	0.001	0.002	0.002	94	100	–	–	–	–	–	–	–	–	–	–
CC(C)OC(=O)CC(F)(F)C(=O)N1N=C(c2c(-c3ccc(Cl)cc3)c3ccccc3[nH]c2=O)CC1c1ccc(Cl)cc1 (centres unmarked) [2m]	6.3 ± 1.1	–	–	–	–	–	56	51	–	–	–	–	–	–	–	97 ± 2.3	88 ± 1.3	BLQ

The next lines start with the values.

IC50 (CYP3A4) [µM]	fraction unbound at 4 h, 5 µM [1, 6]	fraction unbound at 4 h, 5 µM [1, 7]	fraction unbound at 4 h, 5 µM [1, 8]	fraction unbound at 4 h, 5 µM [1, 9]	fraction unbound at 4 h, 5 µM ([1]; pH 7.4, mouse brain tissue binding, read-out: fu)	remaining at 4 h, 5 µM ([1]; 4 h) [%]	recovery at 4 h, 5 μM ([1]; RED, 4 h) [%]	IC50 (GluN1/GluN2A [2]) [µM]	I3 μM/Icontrol GluN2A (GluN1/GluN2A [3])	I3 μM/Icontrol GluN2A (GluN1/GluN2A [3]; listed as racemic 2i)	IC50 (GluN1/GluN2B [4]) [µM]	I3 μM/Icontrol GluN2B (GluN1/GluN2B [5])	I3 μM/Icontrol GluN2B (GluN1/GluN2B [5]; listed as racemic 2i)	metabolized in brain homogenate (% of prodrug) ([1]; after 4 h) [%]	remaining activity at 30 µM (GluN1/GluN2A [2]) [%]	remaining activity at 30 µM (GluN1/GluN2B [4]) [%]	Average 2i Concentration, Buffer_Mice [1]	Compound
> 20	< 0.001	< 0.001	< 0.001	< 0.001	–	105	57	5.6	61 ± 2.4% and 61 ± 2.4 ^b (2,10) %	61 ± 2.4 (2, 10) %	16	78 ± 2.9% and 78 ± 2.9 ^b (2,10) %	78 ± 2.9 (2, 10) %	–	–	–	–	O=C(O)CC(F)(F)C(=O)N1N=C(c2c(-c3ccc(Cl)cc3)c3ccccc3[nH]c2=O)CC1c1ccc(Cl)cc1 (centres unmarked) [2i]
2 ± 0.4	–	–	–	–	–	44	41	5.8	35 ± 6.5 ^b (3,9) %	–	3.1	28 ± 4.5 ^b (3,10) %	–	56	–	–	–	NC(=O)CC(F)(F)C(=O)N1N=C(c2c(-c3ccc(Cl)cc3)c3ccccc3[nH]c2=O)CC1c1ccc(Cl)cc1 (centres unmarked) [2k]
7.8 ± 0.1	–	–	–	–	–	43	41	–	–	–	–	–	–	–	100 ± 3.2	97 ± 2	BLQ	CCOC(=O)CC(F)(F)C(=O)N1N=C(c2c(-c3ccc(Cl)cc3)c3ccccc3[nH]c2=O)CC1c1ccc(Cl)cc1 (centres unmarked) [2l]
